Reference: publication PMC6455008, “Methylation at the C-3′ in D-Ring of Strigolactone Analogs Reduces Biological Activity in Root Parasitic Plants and Rice” (Frontiers in Plant Science, 2019)
Where two headings read alike, the source gives them in different places.

Key:
[1] = test system: Striga hermonthica; assay: Striga emergence in pots under greenhouse conditions (suicidal germination, rice host); assay type: in vivo; settings: formulated 1.0 μM
Protocol: About 10 mg of (ca 4,000) Striga seeds were thoroughly mixed in 2 L of sand and soil mixture (1:1) and added in 3-L perforated plastic pot containing 0.5 L of clean soil in the bottom. Striga seeds were first preconditioned by giving light irrigation and putting pots at 35°C in greenhouse for 10 days. Each pot was sprayed with 20-ml (1.0 μM) formulated SL analogs up to 10 days at 2-day intervals. A light irrigation was given next day of each application to move the compound to Striga seeds and they were allowed to germinate for suicidal death without host for another 1 week. Then, three rice seedlings (5 days old) were planted in the middle of each pot. The rice plants were grown under normal growth condition (30°C, 70% RH) for 8 weeks. Number of emerged Striga plants in each pot were counted.

[2] = test system: P. aegyptiaca seeds; assay: Parasitic seed germination bioassay, Phelipanche; assay type: in vivo, Phelipanche aegyptiaca
Protocol: (§4) Germination activity of SL analogs on S. hermonthica and P. aegyptiaca seeds was tested by following the procedure described before ([Jamil et al., 2012]). The preconditioned Striga and Phelipanche seeds were treated with 50 μl of each SL analog solution at a concentration range (10^−5–10^−12 M). GR24 and sterile MilliQ water were included as positive and negative controls, respectively. The treated seeds were allowed to germinate in the dark for 24 h at 30°C (for Striga) and for 1 week at 25°C (for Phelipanche). The germinated and non-germinated seeds were counted under a binocular microscope, and germination rate (in %) was calculated.
(§5) Collected data were analyzed statistically using statistical software package R (version 3.2.2).

[3] = test system: Striga seeds; assay: Stability of formulated SL analogs in aqueous solution under storage (Striga germination readout); assay type: physicochemical, Striga hermonthica; settings: 1.0 μM
Protocol: (§1) The stability of formulated SL analogs was further tested in sand culture. About 1.5 ml of silver sand was added in each of 6 wells of 24-well plates. Then, 800 μl of formulated SL analogs (1.0 μM) was added in each of the six wells. The plates were sealed firmly with para-film, wrapped in aluminum foil, and placed at 30°C from day 1 to day 7. After 7 days, glass fiber discs containing preconditioned Striga seeds were placed on the top of each of the six wells and incubated in the dark at 30°C for 24 h. The germinated and non-germinated seeds were counted from each disc. In addition, the viability of formulated SL analogs was also tested in aqueous solution for 7 weeks at 30°C. About 800-μl aqueous solution of formulated SL analogs (1.0 μM) was added in a black Eppendorf tube weekly up to 6 weeks and incubated at 30°C. On the seventh week, about 50 μl of each analog was applied on a glass fiber disc containing preconditioned Striga seed and put again in the dark in sealed petri plates at 30°C for 24 h. Germinated and non-germinated seeds were counted from each disc.

[4] = test system: Arabidopsis seedlings; assay: Arabidopsis hypocotyl elongation assay; assay type: in vivo; settings: Arabidopsis thaliana, compared to control seedlings, read-out: inhibition of hypocotyl growth (reduction in hypocotyl length)
Protocol: (§2) The sterilized Arabidopsis seeds were grown in petri plates that were first kept at 4°C in darkness for 3 days. For hypocotyl study, the petri plates were exposed to continuous white light for 24 h, then transferred to continuous monochromatic red light (20 μmol m^−2 s^−1, 22°C) conditions for another 4 days. For lateral root density, the plates were vertically grown at 22°C in Percival incubator under long day conditions (16 h at 22°C/8 h at 16°C day/night, 60% relative humidity, 60–70 μmol m^−2 s^−1 white light) for 8 days. After scanning, the hypocotyl length and number of lateral roots were recorded using publicly available ImageJ software.^1

[5] = test system: Striga seeds; assay: Stability of formulated SL analogs in sand (Striga germination readout); assay type: physicochemical, Striga hermonthica; settings: 1.0 μM, sand, 30°C, 7 days
Protocol: as §1

[6] = molecular target: T1, OsD14 (Oryza sativa subsp. japonica, UniProt Q10QA5); assay: In vitro YLG hydrolysis competition assay, OsD14; assay type: biochemical
T1 construct: made in house
T1 sequence (Q10QA5 1-318): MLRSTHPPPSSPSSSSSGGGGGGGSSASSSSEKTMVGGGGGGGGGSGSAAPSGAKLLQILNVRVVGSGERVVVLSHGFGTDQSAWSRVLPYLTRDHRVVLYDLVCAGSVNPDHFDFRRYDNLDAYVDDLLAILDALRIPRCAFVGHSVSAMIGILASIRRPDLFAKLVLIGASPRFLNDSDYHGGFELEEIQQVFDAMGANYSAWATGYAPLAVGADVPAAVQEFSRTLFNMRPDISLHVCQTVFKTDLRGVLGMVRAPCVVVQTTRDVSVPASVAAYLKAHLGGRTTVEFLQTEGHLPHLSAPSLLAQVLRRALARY
Protocol: (§3) Protein expression and purification of ShHTL7 and Oryza sativa D14 (OsD14) was carried out according to the procedure described earlier ([Jamil et al., 2018]). In vitro Yoshimulactone Green (YLG) hydrolysis assays ([Tsuchiya et al., 2015]) were carried out using 3.0 μM of protein ShHTL7 and OsD14 in a reaction buffer (1X PBS buffer, pH 7.3) with 0.1% DMSO at a 100-μl volume on a 96-well black plate (Greiner). For competitive assays, rac-GR24, AR8, MP13, and MP26 (at range between 0.01 and 50 μM) were co-incubated with 1.0 μM of YLG (Tokyo Chemical Industry Co. Ltd., product number E1238) for 60 min at room temperature. Fluorescent intensity was measured by spectraMax i5 (Molecular Devices) at excitation by 480 nm and detection by 520 nm. The change in fluorescence observed over the course of 1 h of YLG in buffer without protein was subtracted from the data collected in presence of protein. IC50 values were calculated by GraphPad (Prism 7).

[7] = test system: Arabidopsis seedlings; assay: Arabidopsis lateral root density assay; assay type: in vivo; settings: Arabidopsis thaliana, compared to control seedlings
Protocol: as §2

[8] = test system: rice d10 mutant; assay: Rice micro tillering bioassay (d10 mutant, hydroponic); assay type: in vivo
Protocol: Rice seeds (d10) were sterilized with 2.5% sodium hypochlorite for 15 min. After thorough washing with sterile MilliQ water, the seeds were kept in water for 2 days at 30°C in the dark for imbibition and pre-germination. The pre-germinated seeds were then transferred to moist filter paper in 90-mm petri plates and incubated at 30°C overnight. The plates with germinated seeds were then shifted in a growth cabinet with fluorescent white light (130–180 μM m^−2 s^−1) for 1 week. Seven days-old seedlings were moved to 50-ml falcon tubes (one seedling per tube) containing modified half-strength Hoagland nutrient solution in greenhouse. After 1 week, rice plants were treated with 2.5 μM of each SL analog. Mock and GR24 (2.5 μM) were included as control treatments. Six applications of each SL analog were done two times in a week. After 3 weeks of application, number of tillers per plant, plant height, and fresh biomass were measured at final harvest.

[9] = test system: S. hermonthica seeds; assay: Parasitic seed germination bioassay, Striga; assay type: in vivo, Striga hermonthica; settings: for EC50: Striga hermonthica
Protocol: as §4, §5

[10] = molecular target: T2, ShHTL7 (Striga hermonthica, UniProt A0A0M3PNA2); assay: In vitro YLG hydrolysis competition assay, ShHTL7; assay type: biochemical
T2 sequence (A0A0M3PNA2 1-271): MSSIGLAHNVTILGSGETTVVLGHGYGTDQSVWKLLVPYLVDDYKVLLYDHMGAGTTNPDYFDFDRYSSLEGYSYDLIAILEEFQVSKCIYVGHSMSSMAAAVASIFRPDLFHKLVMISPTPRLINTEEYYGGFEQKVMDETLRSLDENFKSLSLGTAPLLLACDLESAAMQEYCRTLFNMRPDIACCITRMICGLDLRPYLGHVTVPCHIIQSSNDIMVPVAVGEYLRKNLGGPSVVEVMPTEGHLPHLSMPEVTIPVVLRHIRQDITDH
Protocol: as §3

CC1=C[C@H](O/C=C2/C(=O)O[C@@H]3c4ccccc4C[C@H]23)OC1=O [GR24, reference compound]
decrease in Striga emergence compared to mock at 10 WAS ([1]; 10 weeks after sowing): 82% | Striga hermonthica emergence, 5 WAS ([1]; mean ± SE, n=5, 5 weeks after sowing): 0.0±0.0 | Striga hermonthica emergence, 6 WAS ([1]; mean ± SE, n=5, 6 weeks after sowing): 0.0±0.0 | Striga hermonthica emergence, 7 WAS ([1]; mean ± SE, n=5, 7 weeks after sowing): 1.0±0.6 | Striga hermonthica emergence, 8 WAS ([1]; mean ± SE, n=5, 8 weeks after sowing): 1.6±0.5 | Striga hermonthica emergence, 9 WAS ([1]; mean ± SE, n=5, 9 weeks after sowing): 1.6±0.5 | Striga hermonthica emergence, 10 WAS ([1]; mean ± SE, n=5, 10 weeks after sowing): 2.4±0.8 | percent decrease in Striga hermonthica emergence over mock, 8 WAS ([1]; negative = decrease, 8 WAS): -85% | percent decrease in Striga hermonthica emergence over mock, 9 WAS ([1]; negative = decrease, 9 WAS): -84% | percent decrease in Striga hermonthica emergence over mock, 10 WAS ([1]; negative = decrease, 10 WAS): -82% | EC50 ([2]; Phelipanche aegyptiaca, read-out: EC50 P. aegyptiaca seed germination, formulated): 9.3 nM | P. aegyptiaca germination rate ([2]; non-formulated, 1.0 μM, 1 week at 25°C): 75% | Striga germination rate maintained for 5 weeks of storage ([3]; 30°C, 5 weeks): around 38% | Striga germination rate after 6 weeks of storage ([3]; 30°C, 6 weeks): 11% | Striga germination rate before storage ([3]; before storage): 76% | inhibition at 1 µM [4]: 37% | Striga germination rate on seventh day of incubation in sand [5]: around 20% | IC50 [6]: 1240 ± 90 nM | inhibition at 1 µM [7]: 53% | inhibition at 2.5 µM ([8]; Oryza sativa, read-out: tillering inhibition): 76% | number of tillers per plant ([8]; SL-deficient d10 mutant, hydroponic, 2.5 μM, twice a week up to 3 weeks, untreated d10 six tillers): 1.4 tillers per plant | plant height compared to mock ([8]; d10 mutant, 2.5 μM): significant increase in plant height | Striga germination rate ([9]; 1.0 μM, formulated and non-formulated, 24 h at 30°C): 75% | EC50 ([9]; read-out: EC50 Striga seed germination, formulated): 0.44 nM | EC50 ([9]; read-out: EC50 Striga seed germination, non-formulated): 1.9 nM | IC50 [10]: 1640 ± 520 nM
